Measured values: US7259004B1, “Endophytic streptomycetes from higher plants with biological activity” (Montana State University, priority 2002, dated 2007)

Legend:
[1] = test system: Protein synthesis in Bacillus subtilis; test: macromolecular synthesis whole cell assay, [3H]amino acid mixture incorporation; format: cell-based; conditions: 1×MIC
[2] = test system: S. maltophilia ATCC 13637; test: disk diffusion assay; format: cell-based, Stenotrophomas maltophilia; conditions: MHA 35° C.
[3] = test system: Enterococcus faecalis ATCC 29212; test: disk diffusion assay; format: cell-based; conditions: MHA 35° C.
[4] = test system: Staphylococcus aureus ATCC 29213; test: disk diffusion assay; format: cell-based; conditions: MHA 35° C.
[5] = test system: Streptococcus pneumoniae ATCC 49619; test: disk diffusion assay; format: cell-based; conditions: A3-5-1 10 micrograms; Chloramphenicol 30 micrograms; MHA w/5% dsb 35° C. w/5% CO2
[6] = test system: Pseudomonas aeruginosa ATCC 27853; test: disk diffusion assay; format: cell-based; conditions: A3-5-1 10 micrograms; Chloramphenicol 30 micrograms; MHA 35° C.
[7] = test system: Salmonella typhimurium ATCC 13311; test: disk diffusion assay; conditions: MHA 35° C.
[8] = test system: Shigella dysenteriae ATCC 11835; test: disk diffusion assay; format: cell-based
[9] = test system: Enterococcus faecium ATCC 49624; test: disk diffusion assay; format: cell-based; conditions: for Disk Diffusion, Enterococcus faecium 49624: MHA 35° C.
[10] = test system: Staphylococus aureus (GISA) ATCC 700787; test: disk diffusion assay; conditions: A3-5-1 10 micrograms; Chloramphenicol 30 micrograms; MHA 35° C.
[11] = test system: Eschericia coli ATCC 10536; test: disk diffusion assay; conditions: A3-5-1 10 micrograms; Chloramphenicol 30 micrograms; MHA 35° C.
[12] = test system: Enterococcus faecalis ATCC 51299; test: disk diffusion assay; format: cell-based; conditions: A3-5-1 10 micrograms; Chloramphenicol 30 micrograms; MHA 35° C.
[13] = test system: DNA synthesis in Bacillus subtilis; test: macromolecular synthesis whole cell assay, [3H]thymidine incorporation; format: cell-based; conditions: 1×MIC
[14] = test system: Eschericia coli ATCC 35218; test: disk diffusion assay; conditions: A3-5-1 10 micrograms; Chloramphenicol 30 micrograms; MHA 35° C.
[15] = test system: B. subtilis 1A757; test: microbe, parasite or virus in culture; format: cell-based, Bacillus subtilis
[16] = test system: S. epidermis ATCC 12228; test: disk diffusion assay; format: cell-based, Staphylococcus epidermidis; conditions: MHA 35° C.
[17] = test system: Acinetobacter sp. ATCC 49137; test: disk diffusion assay; format: cell-based; conditions: A3-5-1 10 micrograms; Chloramphenicol 30 micrograms; MHA 35° C.
[18] = test system: Staphylococcus aureus (GISA) ATCC 700699; test: disk diffusion assay; conditions: MHA 35° C.
[19] = test system: Human Cervical Cancer Epithelial ME180; test: CellTiter 96 Aqueous Non-Radioactive Cell Proliferation Assay; format: cell-based; conditions: Homo sapiens, ME-180; 48 hours; Table 7; read-out: IC50 Human Cervical Cancer Epithelial ME180
Outline: (§1)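 Cells rested 5 h at 37° C after seeding, then treated in triplicate with two-fold serial dilutions of compound. A-549 and ME-180 were exposed for 48 h. After 1–4 h MTS reagent at 37° C, OD490 was read and corrected by subtracting medium-only blanks.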

[20] = test system: Human Lung Cancer Epithelial A549; test: as above; format: cell-based; conditions: Homo sapiens, A549; 48 hours; Table 7; read-out: IC50 Human Lung Cancer Epithelial A549
Outline: as §1

[21] = test system: Enterococcus faecium ATCC 51559; test: disk diffusion assay; format: cell-based; conditions: 10 micrograms per disk; ciprofloxacin 5, vancomycin 30 micrograms per disk; 35° C.
[22] = test system: Neiseseria gonorrhoeae ATCC 49266; test: disk diffusion assay; conditions: A3-5-1 10 micrograms; Chloramphenicol 30 micrograms; GCA w/ 1% supplement in 5% CO2
[23] = test system: Haemophilus influenzae ATCC 49247; test: disk diffusion assay; conditions: A3-5-1 10 micrograms; Chloramphenicol 30 micrograms; HTM 35° C. with 5% CO2
[24] = test system: Micrococcus luteus ATCC 9341; test: disk diffusion assay; conditions: kakadumycin B at 10 μg; control antibiotic; MHA 35° C.
[25] = test system: Escherichia coli ATCC 25922; test: disk diffusion assay; format: cell-based; conditions: MHA 35° C.
[26] = A3-5-1 10 micrograms, Chloramphenicol 30 micrograms
[27] = kakadumycin B at 10 μg, control antibiotic

Question: What does the source list for `O=C(N[C@H](CO)[C@H](O)c1ccc([N+](=O)[O-])cc1)C(Cl)Cl` [Chloramphenicol, reference compound]?
Answer: % [3H]amino acid mixture (Protein synthesis) incorporation of that of the untreated culture ([1]; 5 min): 44%; % [3H]amino acid mixture (Protein synthesis) incorporation of that of the untreated culture ([1]; 10 min): 36%; Disk Diffusion, Stenotrophomas maltophilia 13637 [2, 26]: 28 mm; Disk Diffusion, Stenotrophomas maltophilia 13637 [2, 27]: 25 mm; Disk Diffusion, Enterococcus faecalis 29212 [3, 26]: 20 mm; Disk Diffusion, Enterococcus faecalis 29212 [3, 27]: 20 mm; Disk Diffusion, Staphylococcus aureus 29213 [4, 26]: 25 mm; Disk Diffusion, Staphylococcus aureus 29213 [4, 27]: 19 mm; Disk Diffusion, Streptococcus pneumoniae 49619 [5]: 22 mm; Disk Diffusion, Pseudomonas aeruginosa 27853 [6]: R; Disk Diffusion, Salmonella typhimurium 13311 [7, 26]: 28 mm; Disk Diffusion, Salmonella typhimurium 13311 [7, 27]: 28 mm; diameter of the zone of inhibition, Shigella dysenteriae ATCC 11835 ([8]; 10 micrograms per disk, 35° C.): 11 mm; Disk Diffusion, Shigella dysenteriae 11835 ([8]; A3-5-1 10 micrograms, Chloramphenicol 30 micrograms, MHA 35° C.): 40 mm; diameter of the zone of inhibition, Enterococcus faecium ATCC 49624 ([9]; 10 micrograms per disk, ciprofloxacin 5, vancomycin 30 micrograms per disk, 35° C.): 24 mm; Disk Diffusion, Enterococcus faecium 49624 [9, 26]: 25 mm; Disk Diffusion, Enterococcus faecium 49624 [9, 27]: 20 mm; Disk Diffusion, Staphylococus aureus (GISA) 700787 [10]: 29 mm; Disk Diffusion, Eschericia coli 10536 [11]: 28 mm; Disk Diffusion, Enterococcus faecalis (VRE) 51299 [12]: 8 mm; % [3H]thymidine (DNA synthesis) incorporation of that of the untreated culture ([13]; 5 min): 58%; % [3H]thymidine (DNA synthesis) incorporation of that of the untreated culture ([13]; 10 min): 44%; Disk Diffusion, Eschericia coli 35218 [14]: R; 1×MIC against Bacillus subtilis [15]: 4 micrograms/ml; Disk Diffusion, Staphylococcus epidermidis 12228 [16, 26]: 30 mm; Disk Diffusion, Staphylococcus epidermidis 12228 [16, 27]: 31 mm; Disk Diffusion, Acinetobacter spp. 49137 [17]: 8 mm; Disk Diffusion, Staphylococcus aureus (GISA) 700699 [18, 26]: 26 mm; Disk Diffusion, Staphylococcus aureus (GISA) 700699 [18, 27]: 29 mm; IC50 [19]: > 40 µg/mL; IC50 [20]: > 40 µg/mL; diameter of the zone of inhibition, Enterococcus faecium ATCC 51559 [21]: 24 mm; Disk Diffusion, Neiseseria gonorrhoeae 49266 [22]: 33 mm; Disk Diffusion, Haemophilus influenzae 49247 [23]: 23 mm; Disk Diffusion, Micrococcus luteus 9341 [24]: 29 mm; Disk Diffusion, Eschericia coli 25922 [25, 26]: 29 mm; Disk Diffusion, Escherichia coli 25922 [25, 27]: 26 mm
